Series [1] has as its target human mGluR5 (Homo sapiens, UniProt P41594). The experiment in a line: Cell-based functional Ca2+ mobilization assay (FDSS), potentiation of glutamate EC20 response. Particulars: H10H cell-line (HEK, recombinant human mGluR5); for Emax: glutamate EC20, maximum average response at a single concentration, percent of maximal glutamate response; for EC50: positive allosteric modulation in presence of glutamate EC20, concentration in mol/L. The text has this: Human mGluR5a cDNA in pCMV6-XL6 mammalian expression plasmid was purchased from OriGene Technologies, Inc. (catalogue number SC326357) and subcloned into pcDNA3.1(−). Human embryonic kidney (HEK) 293A cells were then transfected with human mGluR5a pcDNA3.1(−) using LipofectAmine2000 (Invitrogen) and monoclones were selected and tested for functional response using a Ca^2+ mobilization assay. Monoclones were named for the species (“H” for human) plus the location on the plate (e.g. “10H”).
HEK cells transfected with the human mGluR5a receptor (H10H or H12H cell line) were plated at 15,000 cells/well in clear-bottomed poly-D-lysine-coated assay plates (BD Falcon) in glutamate-glutamine-free growth medium and incubated overnight at 37° C. and 5% CO2. Cell-lines used were either the H10H or H12H cell-lines expressing the human mGluR5 receptor. The following day, the growth medium was removed and the cells were washed with assay buffer containing 1× Hank's balanced salt solution (Invitrogen, Carlsbad, Calif.), 20 mM HEPES, 2.5 mM probenecid, pH 7.4 and left with 20 μL of this reagent. Following this step, the cells were loaded with calcium indicator dye, fluo-4 AM, to a final concentration of 2 μM and incubated for 40-45 min at 37° C. The dye solution was removed and replaced with assay buffer. Cell plates were held for 10-15 min at room temperature and were then loaded into the Functional Drug Screening System 6000 (FDSS 6000, Hamamatsu, Japan).
After establishment of a fluorescence baseline for about 3 seconds, the compounds of the present invention were added to the cells, and the response in cells was measured. 2.3 minutes later an EC20 concentration of the mGluR5 receptor agonist glutamate was added to the cells, and the response of the cells was measured for about 1.7 minutes. All test compounds were dissolved and diluted to a concentration of 10 mM in 100% DMSO and then serially diluted into assay buffer for a 2× stock solution in 0.6% DMSO; stock compounds were then added to the assay for a final DMSO concentration of 0.3% after the first addition to the assay well. Calcium fluorescence measures were recorded as fold over basal fluorescence; raw data was then normalized to the maximal response to glutamate. Potentiation of the agonist response of the mGluR5 receptor in the present invention was observed as an increase in response to submaximal concentrations of glutamate in the presence of compound compared to the response to glutamate in the absence of compound.
The concentration-response curves of compounds of the present invention, obtained in the presence of EC20 of mGluR5 receptor agonist glutamate to determine positive allosteric modulation, were generated using Microsoft Excel with IDBS XLFit add-ins. The raw data file containing all time points was used as the data source in the analysis template. This was saved by the FDSS as a tab-delimited text file. Data were normalized using a static ratio function (F/F0) for each measurement of the total 350 values per well divided by each well's initial value. Data was then reduced as to peak amplitudes (Max-Initial Min) using a time range that starts approximately 1 second after the glutamate EC20 addition and continues for approximately 40 seconds. This is sufficient time to capture the peak amplitude of the cellular Calcium response. Individual amplitudes were expressed as % EMax by multiplying each amplitude by 100 and then dividing the product by the mean of the amplitudes derived from the glutamate ECMax-treated wells. pEC50 values for test compounds were generated by fitting the normalized values versus the log of the test compound concentration (in mol/L) using a 4 parameter logistic equation where none of the parameters were fixed. Each of the three values collected at each concentration of test compound were weighted evenly. Individual values falling outside the 95% prediction limits of the curve fit were automatically excluded from the fit. […]

Molecules are shown by their SMILES.

Chain of human mGluR5 (P41594 21-1180 isoform P41594-2 limits assumed): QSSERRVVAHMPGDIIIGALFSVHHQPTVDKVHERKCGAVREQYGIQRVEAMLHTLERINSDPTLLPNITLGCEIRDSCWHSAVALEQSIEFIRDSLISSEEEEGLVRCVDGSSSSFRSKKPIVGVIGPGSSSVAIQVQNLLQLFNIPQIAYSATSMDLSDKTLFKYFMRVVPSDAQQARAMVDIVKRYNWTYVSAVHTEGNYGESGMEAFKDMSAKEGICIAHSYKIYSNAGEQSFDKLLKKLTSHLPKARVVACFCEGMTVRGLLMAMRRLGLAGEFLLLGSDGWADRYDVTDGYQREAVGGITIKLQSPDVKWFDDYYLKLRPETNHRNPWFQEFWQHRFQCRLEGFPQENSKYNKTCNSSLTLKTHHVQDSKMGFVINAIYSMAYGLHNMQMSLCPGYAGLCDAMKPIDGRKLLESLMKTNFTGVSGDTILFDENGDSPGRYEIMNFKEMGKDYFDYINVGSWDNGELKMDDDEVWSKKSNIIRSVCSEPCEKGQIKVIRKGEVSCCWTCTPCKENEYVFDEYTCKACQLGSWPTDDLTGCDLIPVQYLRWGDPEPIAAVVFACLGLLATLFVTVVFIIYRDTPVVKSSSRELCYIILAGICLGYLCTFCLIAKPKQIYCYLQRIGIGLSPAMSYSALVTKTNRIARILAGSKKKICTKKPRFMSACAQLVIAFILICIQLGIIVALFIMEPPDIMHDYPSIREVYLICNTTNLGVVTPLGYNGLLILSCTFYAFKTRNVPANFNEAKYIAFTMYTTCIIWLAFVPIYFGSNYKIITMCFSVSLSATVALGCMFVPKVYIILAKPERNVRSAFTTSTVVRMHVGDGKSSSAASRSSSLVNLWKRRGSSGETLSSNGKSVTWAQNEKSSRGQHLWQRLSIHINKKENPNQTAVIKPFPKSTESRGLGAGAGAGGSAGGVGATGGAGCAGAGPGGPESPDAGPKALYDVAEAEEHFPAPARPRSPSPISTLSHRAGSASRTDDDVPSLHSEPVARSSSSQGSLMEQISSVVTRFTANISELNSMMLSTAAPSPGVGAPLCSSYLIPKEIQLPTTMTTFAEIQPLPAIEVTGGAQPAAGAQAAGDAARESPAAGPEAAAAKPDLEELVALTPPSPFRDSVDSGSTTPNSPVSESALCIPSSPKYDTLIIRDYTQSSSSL

`COc1ccc(CN2CCn3nc(COc4ccnc(C)c4)cc3C2=O)cc1` [Example B33] displayed a melting point of 117.1 °C. In series [1], the maximal response (Emax) came out at 30% and the EC50 is more than 10000 nM.
The molecule `O=C1c2cc(COc3ccccc3)nn2CCN1Cc1ccccn1` [Example B17] showed a melting point of 75.3 °C. In addition, in series [1], the Emax stood at 69.5% and the 50% effective concentration (EC50) was 1120 nM.
For `O=C1c2cc(COc3ccccc3)nn2CCN1Cc1cccc(Cl)c1` [Example B47] the same measures were 218 °C, 76% and 55 nM.
For `Cc1ccnc(OCc2cc3n(n2)CCN(Cc2ccccc2)C3=O)c1` [Example B62] the same measures were 75.4 °C, 39% and 759 nM.
For `O=C1c2cc(COc3ccccc3)nn2CCN1Cc1cccc(F)c1F` [Example B23], in that order: 122.8 °C, 72.5% and 31.6 nM.
`O=C1c2cc(COc3ccccc3)nn2CCN1Cc1cccnc1` [Example B18] showed a melting point of 123.4 °C. For the same molecule, in series [1], the maximum response (Emax) worked out at 63% and the concentration for a half-maximal effect (EC50) is 1910 nM.
For `CC(c1cccnc1)N1CCn2nc(COc3ccccc3)cc2C1=O` (stereo not drawn) [Example B13] the same measures were > 300 °C (dec.), 60% and 1660 nM.
For `COc1nccnc1CN1CCn2nc(COc3cccc(F)c3)cc2C1=O` [Example B103] the same measures were 154.1 °C, 63% and 324 nM.
For `O=C1c2cc(COc3ccccc3)nn2CCN1Cc1nccc2ccccc12` [Example B94], in that order: 137.6 °C, 76% and 123 nM.
`Cc1ccccc1CN1CCn2nc(COc3ccccc3)cc2C1=O` [Example B63] returned a melting point of 189.6 °C. In series [1], the Emax turned out to be 70% and the EC50 is 33.9 nM.

The record behind these values is patent US20130345205A1, “SUBSTITUTED BICYCLIC ARALKYL PYRAZOLE LACTAM ANALOGS AS ALLOSTERIC MODULATORS OF MGLUR5 RECEPTORS” (Vanderbilt University, priority 2012, published 2013).
